The record followed here is patent US10294273B2, “Macrocyclic peptidomimetics for alpha-helix mimicry” (UNIVERSITY OF ROCHESTER, priority 2014, dated 2019).

pIC50: −log10 of the molar value.

Series [1] in a line: Circular dichroism analysis of α-helicity. The note with it: 5 mM potassium phosphate pH 7.0, 40% trifluoroethanol. For orientation: Circular dichroism is widely used to follow secondary structure.
Description: The alpha helical content of the macrocyclic peptidomimetic molecules and reference non-macrocyclic compounds disclosed herein can be determined by Circular Dichroism (CD) spectroscopy.
CD spectra were recorded with a JASCO J-710 CD spectropolarimeter using a 0.1 cm path length cuvette at room temperature. The purified peptides were dissolved in 5 mM potassium phosphate buffer (pH 7.0) containing 40% trifluoroethanol to a final concentration of 20-50 μM. […] The bandwidth was set to 2.0 nm and the sensitivity of the spectrometer set to 100 mdeg.
The target of another series is chymotrypsin (Bos taurus, UniProt P00766). In words: Proteolytic stability in the presence of chymotrypsin (HPLC). The note with it: chymotrypsin 1.0 μg/mL, peptide 10 μM.
Another series deals with HEK-293 cells. As to the kind of experiment: Cell penetration by confocal fluorescence microscopy. The following applies: fluorescein-conjugated compound, 20 μM, 2 h. The series is classed as cell-based, human. The method, then: In some embodiments, the macrocyclic peptidomimetics described herein are more cell permeable than a corresponding non-macrocyclic counterpart. […] To measure the cell permeability of these compounds, intact cells are incubated with fluorescently labeled (e.g. fluorescein-conjugated) macrocyclic peptidomimetic molecule or corresponding non-macrocyclic counterpart (10 μM) for 4 hrs in serum free media at 37° C. Cells are then washed twice with media, incubated with trypsin (e.g. 0.25% trypsin, 10 min, 37° C.), then washed again and resuspended in PBS. Cellular fluorescence is analyzed, for example, by using a FACSCalibur flow cytometer. Alternatively, the ability of the fluorescently labelled compound to penetrate cells can be assessed by confocal fluorescence microscopy.
Similar results were obtained for other p53 macrocyclic peptidomimetic molecules described in FIG. 10.
The cell permeability properties of the macrocyclic peptidomimetics and reference linear peptides were assessed using HEK-293 cell line. These cells were cultured in the DMEM medium supplemented with 10% fetal bovine serum and penicillin/streptomycin. For the cell permeability evaluations, cells were seated overnight (1×10^4 cells/well) in 24-well tissue culture treated plates with glass bottom. […]

The subject of a further series is SJSA-1 cells. As to the kind of experiment: Cell viability (MTT) assay in SJSA-1 osteosarcoma cells. The series is classed as cell-based, human. The following applies: overnight treatment. The method, then: The cytotoxic activity of the macrocyclic peptidomimetic molecules is determined, for example, in cell-based assays using tumorigenic and non-tumorigenic cell lines and primary cells derived from human or mouse cell populations. […]. Such assays can be used to assess the efficacy of the macrocyclic peptidomimetic molecules to reduce the viability of tumorigenic and non-tumorigenic cells. In addition, assays that measure Annexin V and caspase activation can be optionally used to assess whether the cytotoxicity of the macrocyclic peptidomimetic molecules is dependent upon activation of the apoptotic machinery, which is expected to result from reactivation of p53 activity.
Similar results were obtained for other p53 macrocyclic peptidomimetic molecules described in FIG. 10, resulting in LD50 in the low micromolar range.
Cultured SJSA-1 cells were maintained in the RPMI-1640 medium supplemented with 10% fetal bovine serum. For viability evaluation cells were seated in 96-well, tissue culture treated plates (2×10^4 cells/well) and incubated overnight. […] The cells were treated overnight and the viability was assessed by a standard MTT (3-(4,5-dimethylthiazol-2-yl)-2,5-diphenyltetrazolium bromide) assay. The viability is expressed as percentage of viability of the non-treated cells.

Series [2] deals with p53(15-29)-HDMX interaction. As to the kind of experiment: HDMX IC50 (nM). From the text:
(§1) Table printed on a drawing sheet, FIG. 10
Head of the field: HDMX IC50 (nM)
(§2) The patent's description of the figure: FIG. 10. Amino acid sequence, structure, and inhibitory activity of selected p53 macrocyclic peptidomimetics and reference linear peptides. The inhibitory activities refer to IC50 values for disruption of p53(15-29)-HDM2 interaction or p53(15-29)-HDMX interaction as determined using a Surface Plasmon Resonance-based inhibition assay.
(§3) First copying reader's note: In cyclic peptides the linker name (SP4, SP6, SP8, SP9) is printed above the sequence inside a bracket running from the pAcF/mAcF residue to the C-terminus; it is given here before the sequence.
(§4) Where the first naming reader finds the target: description_of_the_figure: IC50 values for disruption of p53(15-29)-HDM2 interaction or p53(15-29)-HDMX interaction

In series [3] the test system is p53(15-29)-HDM2 interaction. In words: HDM2 IC50 (nM).
Description: as §1
Head of the field: HDM2 IC50 (nM)
as §2, §3, §4

A further series addresses T1, HDMX (Homo sapiens, UniProt O15151).
T1 construct: His tag (C); made in house; host or cells: E. coli BL21(DE3)
T1 sequence (O15151 1-109): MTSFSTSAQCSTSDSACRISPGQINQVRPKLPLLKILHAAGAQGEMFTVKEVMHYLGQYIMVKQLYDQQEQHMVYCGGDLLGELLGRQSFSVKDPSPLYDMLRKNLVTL
As to the kind of experiment: SPR inhibition assay, disruption of p53(15-29)-HDMX interaction. Format: binding. The following applies: selectivity ratio between the two protein homologs. The source says: The ability of the macrocyclic peptidomimetic molecules to bind a protein of interest and disrupt a target protein-protein interaction can be assessed, for example, via in vitro surface plasmon resonance (SPR)-based inhibition assays. For example, the ability of these compounds to inhibit the interaction of p53 with oncoprotein HDM2 and HDMX can be measured via an in-solution inhibition assay, in which a biotinylated p53-derived peptide (e.g., biotin-SGSG-p5315-29) is first immobilized on a streptavidin-coated biosensor chip. Soluble HDM2 (or HDMX) is then incubated with varying concentrations of the macrocycle and the mixture is then injected over the functionalized surface. With increasing concentrations of the inhibitor, binding of HDM2 (or HDMX) to the surface is inhibited, leading to a decrease in biosensor response. The response-concentration curves can be then analyzed to measure the inhibitory activity of the compounds in terms of half-maximal inhibitory concentration (IC50).
Briefly, biotin-conjugated […] peptide was first immobilized on a streptavidin-coated biosensor chip and increasing concentrations of the inhibitors were added to a fixed concentration of HDM2 or HDMX. From the corresponding dose-response curves (FIGS. 12A-12B), half-maximal inhibitory concentrations (IC50) were determined for the compounds as summarized in FIG. 10. […]

Description for chymotrypsin: This property can be assessed by incubating the macrocyclic peptidomimetic molecules and the corresponding reference non-macrocyclic polypeptides in the presence of purified proteases or, alternatively, human blood serum. The in vitro proteolytic degradation of the compounds can be then monitored over time by HPLC equipped with a UV detector. From the resulting time-dependent curves, the half-life of the compounds can be measured. As an example, the in vitro proteolytic stability of macrocycles was measured by incubating the compound (10 μM) in 50 mM potassium phosphate buffer (pH 7.5) in the presence of chymotrypsin (1.0 μg/mL) at room temperature. At different time points (e.g. 0, 30, 60, 120, 180, 240 min), an aliquot of the reaction mixture (50 μL) was removed, quenched addition of TFA (5 μL) followed by HPLC analysis. Peptide cleavage was monitored based on the decrease of the peak area corresponding to the integer peptide.
Each peptide (10 μM) was dissolved in 50 mM potassium phosphate buffer (pH 7.5) containing 150 mM NaCl and 10% DMSO. Chymotrypsin (Sigma-Aldrich) was added to a final concentration of 1.0 μg/mL and incubated at room temperature. At each time point, a 50 μL aliquot of the mixture was removed, quenched by TFA addition (5 μL) followed by HPLC analysis. Peptide cleavage was monitored based on the decrease of the peak area corresponding to the integer peptide. […]

In turn, `CC1=NOCc2cn(nn2)Cc2ccc(CSCC(N)=O)c(c2)NC(=O)[C@H](C)NC(=O)[C@H](CC(C)C)NC(=O)[C@H](CC(C)C)NC(=O)[C@H](CC(N)=O)NC(=O)[C@H](Cc2c[nH]c3ccccc23)NC(=O)[C@H](Cc2ccc(O)cc2)NC(=O)[C@H](CCC(=O)O)NC(=O)[C@H](C)NC(=O)[C@H](Cc2ccccc2)NC(=O)[C@H](CO)NC(=O)[C@@H](NC(=O)CN)Cc2ccc1cc2` [P7] displayed a α-helical content in series [1] of 40%. For the same molecule, on chymotrypsin, the “survival of incubation with the protease, up to” value is reported as “up to 3 hour”.
`CC1=NOCCCNC(=O)c2ccc(CSCC(N)=O)c(c2)NC(=O)[C@H](C)NC(=O)[C@H](CC(C)C)NC(=O)[C@H](CC(C)C)NC(=O)[C@H](CC(N)=O)NC(=O)[C@H](Cc2c[nH]c3ccccc23)NC(=O)[C@H](Cc2ccc(O)cc2)NC(=O)[C@H](CCC(=O)O)NC(=O)[C@H](C)NC(=O)[C@H](Cc2ccccc2)NC(=O)[C@H](CO)NC(=O)[C@@H](NC(=O)CN)Cc2ccc1cc2` [P8] yielded a α-helical content in series [1] of 21%. For the same molecule, the “cellular uptake (confocal fluorescence microscopy)” value with HEK-293 cells is given as “diffuse fluorescence at the intracellular level”. In the series on SJSA-1 cells, the “viability of SJSA-1 cells upon treatment” value is “a reduction of cell viability”. Moreover, the “survival of incubation with the protease, up to” value on chymotrypsin is at most 4 h.
For `CC1=NOCc2ccc(CS)c(c2)NC(=O)[C@H](C)NC(=O)[C@H](CC(C)C)NC(=O)[C@H](CC(C)C)NC(=O)[C@H](CC(N)=O)NC(=O)[C@H](Cc2c[nH]c3ccccc23)NC(=O)[C@H](Cc2ccc(O)cc2)NC(=O)[C@H](CCC(=O)O)NC(=O)[C@H](C)NC(=O)[C@H](Cc2ccccc2)NC(=O)[C@H](CO)NC(=O)[C@@H](NC(=O)CN)Cc2ccc1cc2` [P9], the pIC50 in series [2] and in series [3] was under 4.30 each time.
As to `COc1ccc(C2=N[C@@H](c3ccc(Cl)cc3)[C@@H](c3ccc(Cl)cc3)N2C(=O)N2CCNC(=O)C2)c(OC(C)C)c1` [nutlin-3], the “viability of SJSA-1 cells upon treatment” value with SJSA-1 cells was “responsiveness of the cells to p53-HDM2 inhibition was confirmed”.
Take “P6: unconstrained reference linear peptide (SEQ ID NO. 44), acyclic counterpart of P7 and P8 (GYSFAEYWNLLA; Engineered Sequence)”: the negative logarithm of the IC50 (pIC50) in series [2] is 6.45; in series [3], 7.19.
As for “P6: unconstrained reference linear peptide (SEQ ID NO. 44), acyclic counterpart of P7 and P8 (GYSFAEYWNLLA; Engineered Sequence) [reference compound]”, the α-helical content entry in series [1] is on record as “about 31%”. Also, the “IC50(HDMX)/IC50(HDM2)” value in the series with HDMX was 5.5.

In general, pIC50 refers to the negative decadic logarithm of the IC50, by convention in mol/L.
